Patent publication US12479825B2, “Melanocortin subtype-2 receptor (MC2R) antagonists and uses thereof” (Crinetics Pharmaceuticals, Inc., priority 2019, dated 2025)

These compounds were tested against T1, hMC2 receptor (Homo sapiens, UniProt Q01718) (assay: hMC2 membrane binding assay ([125I]ACTH (1-39) Tyr23, SPA)). Conditions: crude hMC2R membranes from CRE-bla-CHO-K1 cells expressing hMC2 receptor and hMRAP; 0.2 nM [125I]ACTH (1-39) Tyr23; 1.5 hours at room temperature; read-out: MC2R binding potency.
T1 construct: host or cells: CRE-bla-CHO-K1 cells, crude membrane fraction
T1 sequence (Q01718 whole entry): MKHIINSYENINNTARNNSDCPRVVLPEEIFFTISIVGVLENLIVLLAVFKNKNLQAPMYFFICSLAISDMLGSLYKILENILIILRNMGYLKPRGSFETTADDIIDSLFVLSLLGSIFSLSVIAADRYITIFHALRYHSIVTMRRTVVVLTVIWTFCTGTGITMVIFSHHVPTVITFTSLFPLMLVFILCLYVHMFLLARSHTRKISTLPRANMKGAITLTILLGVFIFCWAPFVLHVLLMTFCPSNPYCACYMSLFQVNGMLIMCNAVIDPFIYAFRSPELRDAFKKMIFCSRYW
T1 sequence (Q8TCY5 whole entry partner): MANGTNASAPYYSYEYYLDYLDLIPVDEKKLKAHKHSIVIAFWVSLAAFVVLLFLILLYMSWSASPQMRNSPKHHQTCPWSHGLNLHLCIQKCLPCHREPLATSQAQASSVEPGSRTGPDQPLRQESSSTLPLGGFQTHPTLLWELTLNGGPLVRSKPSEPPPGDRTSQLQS
Procedure: Crude membrane fractions are prepared from CRE-bla-CHO-K1 cells stably expressing hMC2 receptor and hMRAP accessory protein (Thermo Fisher). The cells are grown to 85-100% confluence on standard tissue culture dishes in GlutaMax DMEM growth media (Gibco) with following additives: 10% dialyzed FBS (Gemini), 0.1 mM NEAA (Gibco), 25 mM HEPES (Gibco), 5 μg/mL blasticidin (Goldbio), 100 μg/mL zeocin (Invitrogen), 600 μg/mL hygromycin (Goldbio). To prepare membranes, cells are scraped and collected in 1× Dulbecco's phosphate buffered saline (Corning) and then pelleted at 1000 RPM's. The cell pellet is reconstituted in membrane preparation buffer (20 mM HEPES, 6 mM MgCl2 and 1 mM EGTA, protease inhibitor tablets (Pierce) adjusted to pH 7.4), homogenized using a dounce homogenizer, and the resulting membrane fraction is pelleted by centrifugation at 12,000 RPM's. The membrane pellet is resuspended in membrane preparation buffer, snap freezed and stored at −80° C. for later use.
The hMC2 membrane binding assay utilizes the following components: radiolabel [^125I]ACTH (1-39) Tyr23 (PerkinElmer), wheat germ agglutinin coated PVT SPA beads (PerkinElmer), crude hMC2R membranes, and compounds. Briefly hMC2R membranes are incubated with SPA beads in binding assay buffer (50 mM HEPES, 5 mM MgCl2, 1 mM CaCl2, 0.2% BSA, protease inhibitor tablets (Pierce) adjusted to pH7.4) prior to assay initiation. A dose response of compound (the final concentration of compound is typically 0-10,000 nM), SPA membranes, and [^125I]ACTH (1-39) Tyr23 at a final concentration of 0.2 nM is plated in a 96-well assay plate and allowed to incubate 1.5 hours at room temperature. Assay plates are read using a Top Count NXT and Ki values for compounds are determined using a GraphPad Prism 6 non-linear regression analysis.

First: CCOc1ncccc1-c1ccc(N2CC[C@@H](Oc3ccc(C(F)(F)F)cc3C#N)C[C@H]2CC)c(O[C@@H]2CCN(C)C2)n1 (mixture of isomers) [3-8, 2-{[rac-(2R,4R)-1-(2′-ethoxy-6-{[(3R)-1-methylpyrrolidin-3-yl]oxy}-[2,3′-bipyridin]-5-yl)-2-ethylpiperidin-4-yl]oxy}-5-(trifluoromethyl)benzonitrile]
Second: CCOc1ncccc1-c1ccc(N2CC[C@@H](Oc3ccc(C(F)(F)F)cc3C#N)C[C@H]2CC)c(C(=O)N[C@@H]2CCN(C)C2)n1 (single isomer, unassigned) [2-11]
The Ki of the first is higher: 10 to 100 nM for the first, under 10 nM for the second.

`CCOc1ncccc1-c1ccc(N2CC[C@@H](Oc3ccc(C(F)(F)F)nc3C#N)C[C@H]2CC)c(C(=O)N[C@H]2CCN(C)C2)n1` (single isomer, unassigned) [2-22] and `CCOc1ncccc1-c1ccc(N2CC[C@H](Oc3ccc(C(F)(F)F)nc3C#N)C[C@@H]2CC)c(C(=O)N[C@@H]2CN3CCC2CC3)n1` (mixture of isomers) [2-19, N-[(3S)-1-azabicyclo[2.2.2]octan-3-yl]-5-(cis-4-{[2-cyano-6-(trifluoromethyl)pyridin-3-yl]oxy}-2-ethylpiperidin-1-yl)-2′-ethoxy-[2,3′-bipyridine]-6-carboxamide] cannot be ordered by Ki: under 10 nM for the first, under 10 nM for the second.

`CCOc1ncccc1-c1ccc(N2CCN(C(=O)c3ccc(F)cc3Cl)C[C@H]2CC)c(OCCNC)n1` [1-29, [2-({5-[(2R)-4-(2-chloro-4-fluorobenzoyl)-2-ethylpiperazin-1-yl]-2′-ethoxy-[2,3′-bipyridin]-6-yl}oxy)ethyl](methyl)amine] and `CCOc1ncccc1-c1ccc(N2CCN(C(=O)c3ccc(F)cc3C(F)F)C[C@H]2CC)c(OCCNC)n1` [1-10, [2-({5-[(2R)-4-[2-(difluoromethyl)-4-fluorobenzoyl]-2-ethylpiperazin-1-yl]-2′-ethoxy-[2,3′-bipyridin]-6-yl}oxy)ethyl](methyl)amine] cannot be ordered by Ki: under 10 nM for the first, under 10 nM for the second.

`CCOc1ncccc1-c1ccc(N2CCN(C(=O)c3ccc(Cl)cc3C(F)(F)F)C[C@H]2CC)c(OCCN)n1` [1-16, 2-({5-[(2R)-4-[4-chloro-2-(trifluoromethyl)benzoyl]-2-ethylpiperazin-1-yl]-2′-ethoxy-[2,3′-bipyridin]-6-yl}oxy)ethan-1-amine] and `CCOc1ncccc1-c1ccc(N2CCN(C(=O)c3ccc(Cl)cc3C(F)(F)F)C[C@H]2CC)c(OCCNC)n1` [1-15, [2-({5-[(2R)-4-[4-chloro-2-(trifluoromethyl)benzoyl]-2-ethylpiperazin-1-yl]-2′-ethoxy-[2,3′-bipyridin]-6-yl}oxy)ethyl](methyl)amine] cannot be ordered by Ki: under 10 nM for the first, under 10 nM for the second.

First: CCOc1ncccc1-c1ccc(N2CCN(C(=O)c3ccc(F)cc3C(F)F)C[C@H]2CC)c(O[C@@H]2CCNC2)n1 [1-6, 5-[(2R)-4-[2-(difluoromethyl)-4-fluorobenzoyl]-2-ethylpiperazin-1-yl]-2′-ethoxy-6-[(3R)-pyrrolidin-3-yloxy]-2,3′-bipyridine]
Second: CCOc1ncccc1-c1ccc(N2CCN(C(=O)c3ccc(F)cc3Cl)C[C@H]2CC)c(-c2nnc(CN)[nH]2)n1 [4-2, 1-(5-{5-[(2R)-4-(2-chloro-4-fluorobenzoyl)-2-ethylpiperazin-1-yl]-2′-ethoxy-[2,3′-bipyridin]-6-yl}-4H-1,2,4-triazol-3-yl)methanamine]
The Ki of the first is lower: under 10 nM for the first, 10 to 100 nM for the second. The first binds more tightly here.

`CCOc1ncccc1-c1ccc(N2CCN(C(=O)N3CCC[C@H]3C(F)(F)F)C[C@H]2CC)c(OCCN)n1` [1-14, 2-({2′-ethoxy-5-[(2R)-2-ethyl-4-[(2S)-2-(trifluoromethyl)pyrrolidine-1-carbonyl]piperazin-1-yl]-[2,3′-bipyridin]-6-yl}oxy)ethan-1-amine] and `CCOc1ncccc1-c1ccc(N2CCN(C(=O)N3CCC[C@H]3C(F)(F)F)C[C@H]2CC)c(OCCNC)n1` [1-11, [2-({2′-ethoxy-5-[(2R)-2-ethyl-4-[(2S)-2-(trifluoromethyl)pyrrolidine-1-carbonyl]piperazin-1-yl]-[2,3′-bipyridin]-6-yl}oxy)ethyl](methyl)amine] cannot be ordered by Ki: under 10 nM for the first, under 10 nM for the second.

`CCOc1ccccc1-c1ccc(N2CC[C@H](Oc3ccc(Cl)cc3C#N)C[C@@H]2C)c(C(=O)N[C@@H]2CCN(C)C2)n1` (mixture of isomers) [2-24, 3-[cis-4-(4-chloro-2-cyanophenoxy)-2-methylpiperidin-1-yl]-6-(2-ethoxyphenyl)-N-[(3R)-1-methylpyrrolidin-3-yl]pyridine-2-carboxamide] and `CCOc1ncccc1-c1ccc(N2CC[C@H](Oc3ccc(C)cc3C#N)C[C@@H]2CC)c(C(=O)N[C@@H]2CCN(C)C2)n1` (mixture of isomers) [2-17, 5-[cis-4-(2-cyano-4-methylphenoxy)-2-ethylpiperidin-1-yl]-2′-ethoxy-N-[(3R)-1-methylpyrrolidin-3-yl]-[2,3′-bipyridine]-6-carboxamide] cannot be ordered by Ki: under 10 nM for the first, under 10 nM for the second.

`CCOc1ccc(C(=O)N2CCN(c3ccc(-c4cccnc4OCC)nc3OCCN)[C@H](CC)C2)c(C(F)(F)F)n1` [1-12, 2-({2′-ethoxy-5-[(2R)-4-[6-ethoxy-2-(trifluoromethyl)pyridine-3-carbonyl]-2-ethylpiperazin-1-yl]-[2,3′-bipyridin]-6-yl}oxy)ethan-1-amine] and `CCOc1ccc(C(=O)N2CCN(c3ccc(-c4cccnc4OCC)nc3O[C@H](C)CN)[C@H](CC)C2)c(C(F)(F)F)n1` [1-21, (2R)-2-({2′-ethoxy-5-[(2R)-4-[6-ethoxy-2-(trifluoromethyl)pyridine-3-carbonyl]-2-ethylpiperazin-1-yl]-[2,3′-bipyridin]-6-yl}oxy)propan-1-amine] cannot be ordered by Ki: under 10 nM for the first, under 10 nM for the second.

`CCOc1ncccc1-c1ccc(N2CC[C@@H](Oc3ccc(C(F)(F)F)cc3C#N)C[C@H]2CC)c(C(=O)N[C@@H]2CN3CCC2CC3)n1` (racemic) [2-20, N-[(3S)-1-azabicyclo[2.2.2]octan-3-yl]-5-[cis*-4-[2-cyano-4-(trifluoromethyl)phenoxy]-2-ethylpiperidin-1-yl]-2′-ethoxy-[2,3′-bipyridine]-6-carboxamide] and `CCOc1ncccc1-c1ccc(N2CC[C@@H](Oc3ccc(C(F)(F)F)cc3C#N)C[C@H]2C2CC2)c(C(=O)N[C@@H]2CCNC2)n1` (racemic) [2-5, 5-[cis*4-[2-cyano-4-(trifluoromethyl)phenoxy]-2-cyclopropylpiperidin-1-yl]-2′-ethoxy-N-[(3R)-pyrrolidin-3-yl]-[2,3′-bipyridine]-6-carboxamide] cannot be ordered by Ki: under 10 nM for the first, under 10 nM for the second.

First: CCOc1ncccc1-c1ccc(N2CCN(C(=O)C3(C(F)(F)F)CCCC3)C[C@H]2CC)c(O[C@@H]2CCN(C)C2)n1 [1-3, 2′-ethoxy-5-[(2R)-2-ethyl-4-[1-(trifluoromethyl)cyclopentanecarbonyl]piperazin-1-yl]-6-{[(3R)-1-methylpyrrolidin-3-yl]oxy}-2,3′-bipyridine]
Second: CCOc1ccc(C(=O)N2CCN(c3ccc(-c4cccnc4OCC)nc3O[C@@H](C)CN)[C@H](CC)C2)c(C(F)(F)F)n1 [1-22, (2S)-2-({2′-ethoxy-5-[(2R)-4-[6-ethoxy-2-(trifluoromethyl)pyridine-3-carbonyl]-2-ethylpiperazin-1-yl]-[2,3′-bipyridin]-6-yl}oxy)propan-1-amine]
The Ki of the first is higher: 10 to 100 nM for the first, under 10 nM for the second. The second binds more tightly here.

`CCOc1ncccc1-c1ccc(N2CCN(C(=O)N3CCc4cc(Cl)cc(C#N)c43)C[C@H]2CC)c(OCCNC)n1` [1-26, 5-chloro-1-[(3R)-4-{2′-ethoxy-6-[2-(methylamino)ethoxy]-[2,3′-bipyridin]-5-yl}-3-ethylpiperazine-1-carbonyl]-2,3-dihydro-1H-indole-7-carbonitrile] gave a Ki of under 10 nM.
